Assay results from publication PMC7177833, “2-Aminopyridine Analogs Inhibit Both Enzymes of the Glyoxylate Shunt in Pseudomonas aeruginosa” (International Journal of Molecular Sciences, 2020).
“And” between values parts separate entries of the source, which are not always exact repeats. Equal values may be shown once.

How the values were obtained:
MSPa = MSPa (Pseudomonas aeruginosa, UniProt Q9I636); experiment: Isothermal titration calorimetry, MSPa
Method: Protein samples were dialyzed (2 × 1 L) in a D-tube dialyzer (Merck, Watford, UK) for 3 h in 25 mM Tris-HCl, 100 mM NaCl, and 0.1 mM TCEP (pH 7.5). […] The syringe and the cell both contained a final concentration of 0.1% DMSO. The injection parameters for MSPa were: Reference power 15 µcal/sec, initial injection of 3 µL (3.6 sec per injection) with subsequent injections of 10 µL (12 sec per injection). Injections were spaced by 150 sec with a filter period of 2 sec. The injection parameters for ICLPa were: Reference power 15 µcal/sec, initial injection of 3 µL (3.6 sec per injection) with subsequent injections of 8 µL (10 sec per injection). Injections were spaced by 170 sec with a filter period of 2 sec. Data were analyzed in NITPIC (NITPIC, Bethesda, MD, USA) [31] for baseline calculations and then fit for thermodynamic parameters using the OneSite model in Origin 7.0 software (Origin Software Solutions, Bristol, UK). Each titration was carried out in duplicate.

CYP2C19 = target: T1, CYP2C19 (Homo sapiens, UniProt P33261); experiment: CYP450 inhibition in HLM, mephenytoin probe; format: in vitro ADME
T1 construct: pooled human liver microsomes; tissue BioIVT; host or cells: pooled human liver microsomes
T1 sequence (P33261 whole entry): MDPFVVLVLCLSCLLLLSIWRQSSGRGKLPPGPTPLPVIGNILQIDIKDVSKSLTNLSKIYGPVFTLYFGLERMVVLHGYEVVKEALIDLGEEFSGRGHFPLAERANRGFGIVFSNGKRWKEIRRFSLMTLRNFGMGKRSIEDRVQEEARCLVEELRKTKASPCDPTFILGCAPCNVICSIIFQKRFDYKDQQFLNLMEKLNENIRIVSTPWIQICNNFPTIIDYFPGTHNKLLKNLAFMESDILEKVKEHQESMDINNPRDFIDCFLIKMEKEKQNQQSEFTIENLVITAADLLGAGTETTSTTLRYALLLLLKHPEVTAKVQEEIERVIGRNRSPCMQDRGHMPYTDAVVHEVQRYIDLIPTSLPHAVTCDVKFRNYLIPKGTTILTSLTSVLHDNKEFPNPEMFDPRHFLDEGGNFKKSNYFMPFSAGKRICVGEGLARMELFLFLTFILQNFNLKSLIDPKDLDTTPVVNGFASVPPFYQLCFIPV
Method: The CYP450 inhibition was determined by measuring the reaction products of known CYP450 substrates (probes). […] These probe solutions were dispensed (195 µL) into clear 96-well plates with low evaporation lids (Corning, Turin, Italy) and the plates were prewarmed to 37 °C in a thermomixer (Hamilton, Agrate Brianza, Italy). Next, 5 µL of the test compound or appropriate positive control (Table S4) were added to the wells and the plates were incubated for a further 5 min. Following this, the reactions were started by adding NADPH regenerating solution (50 µL, see previous Section 4.7) to each well. CYP450 mixtures containing phenacetin, rosiglitazone, mephenytoin, atorvastatin, and nifedipine probes were incubated for 10 min at 37 °C, whereas those with midazolam and diclofenac were incubated for 5 min at 37 °C. […]
Probe products were analyzed on an API4000 Qtrap mass spectrometer (Applied Biosystems/MDS SCIEX, Monza, Italy) coupled with an Acquity UPLC system (Waters, Milan, Italy) and a CTC-PAL auto-injector (CTC Analytics AG, Zwingen, Switzerland). […] The analytes were quantified in multiple reaction-monitoring mode. Data were processed, and the percentage control activity was calculated based on a comparison between the ratio of the sample peak area and the peak area.

ICLPa = target: T2, ICLPa (Pseudomonas aeruginosa, UniProt Q9I0K4); experiment: Kinetic mode of action on ICLPa; format: biochemical; parameters: made in house; conditions: isocitrate titrated; uncompetitive model, GraphPad Prism
T2 sequence (Q9I0K4 1-531): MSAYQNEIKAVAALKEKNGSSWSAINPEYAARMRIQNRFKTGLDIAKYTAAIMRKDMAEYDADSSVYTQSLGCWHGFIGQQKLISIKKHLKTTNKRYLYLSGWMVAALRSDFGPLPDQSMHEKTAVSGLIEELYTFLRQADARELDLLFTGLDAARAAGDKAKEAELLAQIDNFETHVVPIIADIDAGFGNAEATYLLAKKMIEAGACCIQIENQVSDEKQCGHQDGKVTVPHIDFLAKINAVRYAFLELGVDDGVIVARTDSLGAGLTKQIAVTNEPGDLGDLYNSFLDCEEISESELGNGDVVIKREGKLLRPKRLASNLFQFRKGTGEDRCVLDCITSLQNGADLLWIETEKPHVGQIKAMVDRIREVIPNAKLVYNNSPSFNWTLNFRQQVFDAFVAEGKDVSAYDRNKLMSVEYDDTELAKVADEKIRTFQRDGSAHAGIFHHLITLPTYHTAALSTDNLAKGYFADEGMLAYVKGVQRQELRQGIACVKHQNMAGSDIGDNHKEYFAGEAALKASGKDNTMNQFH
Method: The enzymatic activity of purified ICLPa and MSPa was assayed essentially as previously described. Compounds were added to the reaction mixtures (minus substrates) and incubated for 5 min at 37 °C. The enzyme concentration in the reaction mixtures was 170 nM for ICL and 25 nM for MS (based on the concentration of the monomer in each case). […] The reactions were initiated by the addition of pH-adjusted substrates, and the initial rates were recorded as A324 nm (for ICLPa) and A412 nm (for MSPa) using a Biospectrometer (Eppendorf, Stevenage, UK). Substrate turnover was calculated from the molar extinction coefficient of the assay products: Glyoxylate-phenylhydrazone (16,800/M/cm) for ICLPa and 2-nitro-5-thiobenzoic acid (14,150/M/cm) for MSPa.
The mode of action of SB002 on MSPa and ICLPa was determined by titrating the respective substrates of each enzyme in the presence of three fixed concentrations of SB002 (selected to lie around the measured IC50 value) and measuring the reaction rates as outlined in Section 4.3. Double-reciprocal plots and best-fit inhibition models (GraphPad Prism v. 7.04) were used to assess the mode of inhibition. Inhibition constants were calculated using GraphPad Prism v. 7.04 (GraphPad Software, Inc., La Jolla, CA, USA). Each data point represents the mean ± SD for three independent replicates.

[1] = ITC, 25 °C, reverse titration, MSPa

Chain of MSPa (Q9I636 whole entry): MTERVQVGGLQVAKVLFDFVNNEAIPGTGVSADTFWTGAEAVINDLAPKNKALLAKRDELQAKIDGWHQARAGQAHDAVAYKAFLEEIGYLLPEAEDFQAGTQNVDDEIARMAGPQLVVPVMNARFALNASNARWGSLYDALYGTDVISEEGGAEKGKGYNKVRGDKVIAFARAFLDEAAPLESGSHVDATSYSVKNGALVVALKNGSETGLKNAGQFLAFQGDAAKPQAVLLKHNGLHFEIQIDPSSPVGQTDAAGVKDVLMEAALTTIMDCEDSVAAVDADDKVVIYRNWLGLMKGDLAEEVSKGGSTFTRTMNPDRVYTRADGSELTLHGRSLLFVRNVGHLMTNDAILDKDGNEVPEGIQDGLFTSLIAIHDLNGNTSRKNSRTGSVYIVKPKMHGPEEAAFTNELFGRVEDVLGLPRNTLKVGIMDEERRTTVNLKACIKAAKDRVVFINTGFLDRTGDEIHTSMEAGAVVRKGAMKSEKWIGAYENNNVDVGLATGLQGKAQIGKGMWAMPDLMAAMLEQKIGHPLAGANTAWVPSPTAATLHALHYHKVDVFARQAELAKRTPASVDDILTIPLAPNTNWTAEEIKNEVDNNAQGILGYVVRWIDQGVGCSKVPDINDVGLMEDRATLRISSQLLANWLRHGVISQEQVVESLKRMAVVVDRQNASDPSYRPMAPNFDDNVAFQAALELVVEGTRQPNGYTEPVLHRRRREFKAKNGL

With `CC(C)(C)OC(=O)/N=C(\NC(=O)OC(C)(C)C)Nc1cc(Cl)ccn1` [SB002] the Kd (MSPa) was 0.0286 ± 0.0016 µM, the Ka (MSPa; [1]) was 3.56e+07 ± 1.86e+06 M and the ΔG (MSPa; [1]) was −10.31 ± 1.79×10^−3 kcal/mol. For the same compound, the ΔH (MSPa; [1]) was −0.47 ± 1.79×10^−3 kcal/mol, the “−TΔS” value (MSPa; [1]) was -9.84 kcal/mol and the “n (binding sites)” value (MSPa; ITC, per monomeric unit of MSPa) was 0.35 and 0.35 ± 8.41 × 10^−4. For the same compound, the “IC50 CYP450 2C19” value (CYP2C19) was “some evidence of interacting with the turnover of mephenytoin”, the IC50 (CYP2C19; read-out: IC50 CYP450 2C19) was 126 µM and the “Ki’ (inhibition constant for binding to the enzyme-substrate complex), ICLPa” value (ICLPa) was 21.3 µM.
